Measured values published in publication PMC11091117, “A fluorescently-tagged tick kinin neuropeptide triggers peristalsis and labels tick midgut muscles” (Scientific Reports, 2024).
“Also recorded” adds a separate entry of the source. Where no end group is shown, it is not given here.

What was measured:
[1] = test system: tick kinin receptor (recombinant R. microplus receptor, CHO-K1 BMLK3 cells); assay: Cellular end-point fluorescence calcium mobilization assay, BMLK3 cells; format: cell-based, Rhipicephalus microplus
From the text: Three peptides were used in this study. These included: 1) the ligand for the endogenous tick kinin receptor from Rhipicephalus sanguineus, Rhisa-kinin 8 peptide of sequence GTGEDQAFSPWGamide (Rhisa-K-8; RK8; of identical sequence to Rhimi-K-8 in Rhipicephalus microplus)[48], 2) the same peptide but fluorescently labeled at the N-terminus with tetramethylrhodamine (TMR) a red fluorescent dye, designated TMR-Rhisa-K-8 (TMR-RK8), and 3) a labeled peptide synthesized with the scrambled sequence of the kinin ligand, designated TMR-Scrambled. The sequence of TMR-RK8 was TMR-C-GTGEDQAFSPWGamide). The TMR-Scrambled kinin (TMR-C-GTQWGPGFEADSamide) served as a negative control for tissue labeling. All peptides were custom-synthesized and purchased from GenScript (Piscataway, NJ, USA) with a purity of ≥ 95% and the cysteine in bold in both sequences was added to attach the label. Experiments were replicated with independently synthesized batches (4 mg each) of labeled and unlabeled peptides, for reproducibility. Unlabeled RK8 was used as a competitive ligand to verify target-specific binding of the labeled TMR-RK8 (see Ligand Competition Assay). For cell assays, the peptide stock solutions (100 µM) were made in 1% dimethyl sulfoxide (DMSO) in Hank’s balanced salt solution (HBSS, Thermo Fisher, Waltham, USA). For fluorescent cell labeling, peptide working solutions (10 µM) were prepared in HBSS from stock solutions. For assays on the midgut, peptides were solubilized and diluted in a tick physiological saline consisting of 140 mM NaCl, 5 mM KCl, 1 mM MgCl2, 5 mM CaCl2, 4 mM NaHCO3, and 5 mM HEPES, pH 7.2[49].
The tick kinin receptor is stably expressed in the recombinant CHO-K1 cell line designated BMLK3 (Boophilus microplus leucokinin receptor 3) that was constructed and selected as described by Holmes, et al.[47]. The CHO-K1 cells had been obtained from the American Type Culture Collection (ATCC) for transfection with the expression construct. This cell line has been kept in the laboratory since 2003. Cells that were transfected only with an empty plasmid are referred to as “vector-only” (V/O) cells and were used as a negative control. Before all experiments, the BMLK3 cell line or V/O cells were separately cultured in T-75 flasks with selective medium (F-12 K medium containing 10% FBS and 800 μgmL^−1 of G418 sulfate) for one to two passages in a humidified incubator at 37 °C and 5% CO2.
A fluorescence-based intracellular calcium mobilization end-point assay described by Xiong, et al.[50] was used to confirm the activity of the TMR-labeled RK8 peptide on a cell line expressing the tick kinin receptor. For this, BMLK3 and V/O cells were cultured in F-12 K medium (1% FBS and 400 μgmL^−1- of G418 Sulfate). The cells were seeded in a 96-well plate with 20,000 cells per well and incubated overnight at 37 °C and 5% CO2. The next morning, cells were prepared for the assay following the manufacturer’s instructions for the Fluo-8 Calcium Flux Assay Kit – NoWash (Abcam, Cambridge, United Kingdom). The F-12 K medium in the plate was removed by inverting the plate and gently blotting on paper towels. […] The calcium fluorescence signal was detected by a CLARIOstar (BMG LABTECH, Chicago, IL, United States) plate reader set to read at the fluorescence plate-mode with excitation and emission wavelengths of 490 and 525 nm at 29 °C. Calcium responses were read immediately after the addition of 10 µL of either TMR-RK8, unlabeled RK8, or blank solvent (1% DMSO in HBSS). […]

[2] = test system: vector-only (V/O) CHO-K1 cells; assay: Cellular end-point fluorescence calcium mobilization assay, vector-only control cells; format: cell-based; settings: 10 µM peptide, Fluo-8, 29 °C, 60 s, 4 technical replicates
From the text: Three peptides were used in this study. These included: 1) the ligand for the endogenous tick kinin receptor from Rhipicephalus sanguineus, Rhisa-kinin 8 peptide of sequence GTGEDQAFSPWGamide (Rhisa-K-8; RK8; of identical sequence to Rhimi-K-8 in Rhipicephalus microplus)[48], 2) the same peptide but fluorescently labeled at the N-terminus with tetramethylrhodamine (TMR) a red fluorescent dye, designated TMR-Rhisa-K-8 (TMR-RK8), and 3) a labeled peptide synthesized with the scrambled sequence of the kinin ligand, designated TMR-Scrambled. The sequence of TMR-RK8 was TMR-C-GTGEDQAFSPWGamide). The TMR-Scrambled kinin (TMR-C-GTQWGPGFEADSamide) served as a negative control for tissue labeling. […]
A fluorescence-based intracellular calcium mobilization end-point assay described by Xiong, et al.[50] was used to confirm the activity of the TMR-labeled RK8 peptide on a cell line expressing the tick kinin receptor. […] The calcium fluorescence signal was detected by a CLARIOstar (BMG LABTECH, Chicago, IL, United States) plate reader set to read at the fluorescence plate-mode with excitation and emission wavelengths of 490 and 525 nm at 29 °C. Calcium responses were read immediately after the addition of 10 µL of either TMR-RK8, unlabeled RK8, or blank solvent (1% DMSO in HBSS). […]

[3] = test system: tick kinin receptors on midgut muscles; assay: Ligand competition assay on midgut; format: binding, Rhipicephalus sanguineus; settings: TMR-RK8 10 µM 1 min, then unlabeled RK8 100 µM 1 min, tick saline, confocal 20x
From the text: Individual female ticks were immobilized on a Petri dish filled with wax by submerging their legs in melted wax heated with a soldering pencil (Electronic Control Soldering Station EC 1000, Weller, Apex, North Carolina, USA). Females were dissected under physiological saline following the protocol described by Tidwell et al.[51]. The tick was cut along the edge of the scutum/alloscutum using a stainless steel #12 scalpel blade (Integra Miltex, York, PA, USA), after which the scutum was removed with a pair of fine forceps. To expose the midgut for removal, the tracheae, Malpighian tubules, ovaries, rectal sac, and synganglion were removed with fine forceps in that order. The midgut was then carefully removed and placed into 200 µL of fresh tick saline (See Reagents and Peptides) on a single gasketed incubation chamber (500 µL, Size 22 × 40 mm, Electron Microscopy Sciences, Hatfield, PA). […]
Fluorescently-labeled midgut tissues were imaged using a Leica SP8 inverted confocal microscope. For fluorescence excitation, the 405 nm fixed-wavelength laser was used for DAPI and a white light laser selective for wavelengths between 470 and 670 nm was used for tetramethylrhodamine and phalloidin. […] Images were analyzed and computer-colored using Fiji/ImageJ (National Institutes of Health, Bethesda, MD). […]

[4] = test system: R. microplus recombinant receptor; set-up: method as in PMID 31794138; settings: cited from earlier work

GTGEDQAFSPWG-NH2 [RK8, endogenous ligand of the tick kinin receptor from Rhipicephalus sanguineus, identical to Rhimi-K-8 of R. microplus]
intracellular calcium fluorescence response / receptor activation (in words) ([1]; 10 nM to 10 μM (four concentrations), 1% DMSO in HBSS, Fluo-8, Ex 490/Em 525 nm, 29 °C, read 60 s at 1 s intervals, average raw fluorescence units of 4 technical replicates, simple linear regression): elicited a dose-dependent intracellular calcium fluorescence response
fluorescence units at highest concentration, TMR-RK8 compared with RK8 (in words) ([1]; highest concentration assayed 10 µM, Fluo-8, 4 technical replicates): maximal and similar for the highest concentration assayed of 10 µM
calcium fluorescence response of vector-only cells (in words) [2]: invariable background fluorescence
displacement of TMR-RK8 muscle labeling by unlabeled RK8 (in words) [3]: substantial reduction in the fluorescent signal observed on muscles; also recorded: greatly reduced the fluorescent signal of muscles; also recorded: competitive inhibition of fluorescent signal on muscle tissue
displacement of TMR-RK8 muscle labeling by unlabeled RK8 (in words) ([3]; listed as kinin 8): competed TMR-RK8, decreasing confocal microscopy signal intensity
activity on the R. microplus recombinant receptor (in words) [4]: highly active at the nanomolar level
